The values that follow come from paper PMC8286840, “Identifying SARS-CoV-2 antiviral compounds by screening for small molecule inhibitors of Nsp3 papain-like protease” (Biochemical Journal, 2021).

Where a name gives a salt, the structure may show the parent alone. Read-outs that look alike come from different tables or passages of the source.

The target in experiment [1] is T1, SARS-CoV-2 PLpro (nsp3 1564–1878) (Severe acute respiratory syndrome coronavirus 2, UniProt P0DTD1). The experiment can be described thus: biochemical. The following applies: low concentration screen, read-out: % of control remaining. Also noted: FRET-quenched peptide (Pro3) cleavage by PLpro, 10 min pre-incubation, slope over 20 min, normalised to no-compound control.

Experiment [2] concerns the target T1, SARS-CoV-2 PLpro (nsp3 1564–1878). Kind of experiment: biochemical. Details: FRET-quenched peptide (Pro3) cleavage by PLpro, 10 min pre-incubation, slope over 20 min, normalised to no-compound control. The following applies: high concentration screen, read-out: % of control remaining.

For `COC(=O)c1sccc1S(=O)(=O)Nc1ccc(Nc2ccccc2)cc1OC` [GSK0660], the remaining activity at 1.25 µM in experiment [1] (Well no.=5869) turned out to be 111%. The remaining activity at 3.75 µM in experiment [2] (Well no.=5869) came out at 109%.

In the case of `CCOC(=O)C1=C(C)NC(C)=C(C(=O)OC)C1c1cccc([N+](=O)[O-])c1` (centres unmarked) [Nitrendipine], the results for the remaining activity at 1.25 µM in experiment [1] (Well no.=796) and in experiment [1] (Well no.=1719) were 92.2% and 99.4%, respectively. The remaining activity at 3.75 µM in experiment [2] (Well no.=796) was 94.4%; in experiment [2] (Well no.=1719), 103%.

As for `COc1ccc(OC)c(C2C(C#N)=C(N)Oc3n[nH]c(-c4ccc5ccccc5c4)c32)c1` (centres unmarked) [RBC8], the remaining activity at 1.25 µM in experiment [1] (Well no.=7809) was found to be 105%. The remaining activity at 3.75 µM in experiment [2] (Well no.=7809) was 113%.

As for `COc1cc2nc(C3CC3)nc(N3CCN(c4ccccc4OC)CC3)c2cc1OC` [ML314], in experiment [1] (Well no.=7913), the remaining activity at 1.25 µM was 97.1%. Moreover, the remaining activity at 3.75 µM in experiment [2] (Well no.=7913) came out at 98.2%.

Consider `COc1ccc(S(=O)(=O)N(CCO)c2ccccc2CN(C)C/C=C/c2ccc(Cl)cc2)cc1` [KN-93], for which the remaining activity at 1.25 µM in experiment [1] (Well no.=2556) was 103%. Also, the remaining activity at 3.75 µM in experiment [2] (Well no.=2556) came to 102%.

As to `Nc1cc(Cl)c(NC2=NCCN2)c(Cl)c1` [p-Aminoclonidine hydrochloride], in experiment [1] (Well no.=151), the remaining activity at 1.25 µM was 102%. Besides, the remaining activity at 3.75 µM in experiment [2] (Well no.=151) was 102%.

With `C=C[C@]1(C)C[C@@H](OC(=O)CO)[C@]2(C)[C@H](C)CC[C@]3(CCC(=O)[C@H]32)[C@@H](C)[C@@H]1O` [(3aR,4R,5R,7S,8S,9R,9aS,12R)-8-hydroxy-4,7,9,12-tetramethyl-3-oxo-7-vinyldecahydro-4,9a-propanocyclopenta[8]annulen-5-yl 2-hydroxyacetate], the remaining activity at 1.25 µM in experiment [1] (Well no.=5764) was determined as 97.1%. For the same molecule, the remaining activity at 3.75 µM in experiment [2] (Well no.=5764) is 97.7%.

Take `C=CC(=O)Nc1ccc2ncnc(Nc3ccc(OCc4cccc(F)c4)c(Cl)c3)c2c1` [AST-1306]: the remaining activity at 1.25 µM in experiment [1] (Well no.=5142) was 101%. The remaining activity at 3.75 µM in experiment [2] (Well no.=5142) stood at 100%.

As to `CCN1C[C@]2(C)CC[C@H](O)[C@]34C1[C@@H](C[C@H]23)[C@@]1(O)C[C@H](OC)[C@H]2C[C@@H]4[C@@H]1[C@H]2O` [Karakoline], the remaining activity at 1.25 µM came out at 102% in experiment [1] (Well no.=831) and 111% in experiment [1] (Well no.=3157). Also, the remaining activity at 3.75 µM in experiment [2] (Well no.=831) was determined as 99.5%; in experiment [2] (Well no.=3157), 103%.

Take `O=C(CCc1ccc(CN[C@H](C(=O)OC2CCCC2)C2CCCCC2)cn1)NO` [HDAC-IN-3]: the remaining activity at 1.25 µM in experiment [1] (Well no.=8172) was 105%. Moreover, in experiment [2] (Well no.=8172), the remaining activity at 3.75 µM was determined as 104%.

Take `CCCN(CCN1CCN(c2ccccc2OC)CC1)C1CCc2ncsc2C1` (centres unmarked) [ST-836 (hydrochloride)]: the remaining activity at 1.25 µM in experiment [1] (Well no.=8445) was found to be 89.3%. Further, the remaining activity at 3.75 µM in experiment [2] (Well no.=8445) came out at 92.2%.

As to `CNC(=O)CCc1cc(-c2ccc(-c3ccc(C(F)(F)F)cc3)cc2)nn1-c1ccc(N2CCNCC2)cc1` [OSU-T315], the remaining activity at 1.25 µM in experiment [1] (Well no.=7022) amounted to 92.9%. The remaining activity at 3.75 µM in experiment [2] (Well no.=7022) worked out at 93.8%.

For the molecule `CN1CCC(C(=O)c2cccc(NC(=O)c3c(F)cc(F)cc3F)n2)CC1` [Lasmiditan (hydrochloride)], the remaining activity at 1.25 µM in experiment [1] (Well no.=8055) came to 97%. Further, the remaining activity at 3.75 µM in experiment [2] (Well no.=8055) was 98.4%.

As for `CC1=CC(=O)c2c(O)cccc2C1=O` [Plumbagin], in experiment [1] (Well no.=3351), the remaining activity at 1.25 µM worked out at 85.5%. Also, the remaining activity at 3.75 µM in experiment [2] (Well no.=3351) worked out at 79.6%.

Regarding `CCCCCC[C@@H](O)C/C=C\CCCCCCCC(=O)O` [Ricinoleic acid], the remaining activity at 1.25 µM in experiment [1] (Well no.=4484) turned out to be 102%. In experiment [2] (Well no.=4484), the remaining activity at 3.75 µM worked out at 99.9%.

As to `Cc1ccc(-c2c(-c3nn(C)c4ncnc(N5CC[C@H](N6CCCCC6)C5)c34)cnn2C)cc1` [PF-4981517], in experiment [1] (Well no.=4875), the remaining activity at 1.25 µM came to 99.5%. In addition, the remaining activity at 3.75 µM in experiment [2] (Well no.=4875) worked out at 93.8%.

Consider `N[C@H](C(=O)O)c1cc(O)no1` (racemic), for which the remaining activity at 1.25 µM in experiment [1] (Well no.=819) worked out at 98.4%. The remaining activity at 3.75 µM in experiment [2] (Well no.=819) came out at 98.7%.

As to `O=C(O)c1cc(/N=N/c2ccc(O)c(C(=O)O)c2)ccc1O` [Olsalazine Sodium], the remaining activity at 1.25 µM in experiment [1] (Well no.=4688) is 101%. The remaining activity at 3.75 µM in experiment [2] (Well no.=4688) was determined as 97.9%.

For the molecule `C=C(C)[C@@H]1CC=C(C(=O)O)CC1` [Perillic acid], the remaining activity at 1.25 µM in experiment [1] (Well no.=3429) amounted to 93.1%. Besides, the remaining activity at 3.75 µM in experiment [2] (Well no.=3429) worked out at 93.2%.

As to `O=C(CCCN1CCN(c2ccccn2)CC1)c1ccc(F)cc1` [Azaperone], the results for the remaining activity at 1.25 µM in experiment [1] (Well no.=2163) and in experiment [1] (Well no.=6471) were 100% and 102%, respectively. Moreover, the remaining activity at 3.75 µM in experiment [2] (Well no.=2163) came to 103%; in experiment [2] (Well no.=6471) it was 101%.

Consider `CCCCC[C@@H](/C=C/C=C\CCCCCCCC(=O)O)OO` [13(S)-HPODE], for which the remaining activity at 1.25 µM in experiment [1] (Well no.=4388) was determined as 102%. Also, in experiment [2] (Well no.=4388), the remaining activity at 3.75 µM was 101%.

With `CCCc1nc2c(C)cc(-c3nc4ccccc4n3C)cc2n1Cc1ccc(-c2ccccc2C(=O)O)cc1` [Telmisartan], the results for the remaining activity at 1.25 µM in experiment [1] (Well no.=2297) and in experiment [1] (Well no.=6283) were 95.4% and 105%, respectively. The figures for the remaining activity at 3.75 µM in experiment [2] (Well no.=2297) and in experiment [2] (Well no.=6283) were 94.3% and 108%, respectively.

`Clc1ccc2nsnc2c1NC1=NCCN1` [Tizanidine (hydrochloride)]: in experiment [1] (Well no.=6612), the remaining activity at 1.25 µM came out at 105%. Besides, in experiment [2] (Well no.=6612), the remaining activity at 3.75 µM worked out at 96%.

As for `C[C@H]([C@H](O)CCC(C)(C)O)[C@H]1CC[C@@]2(O)C3=CC(=O)[C@@H]4C[C@@H](O)[C@@H](O)C[C@]4(C)[C@H]3CC[C@]12C` [Ecdysone], the remaining activity at 1.25 µM in experiment [1] (Well no.=3643) was 104%. In addition, the remaining activity at 3.75 µM in experiment [2] (Well no.=3643) came to 102%.

Take `CC(=O)OC[C@@]1(O)CC23CC[C@@H]4c5ccoc5C=C[C@@]4(C)[C@@H]2CC[C@@H]1C3` [Kahweol Acetate]: the remaining activity at 1.25 µM in experiment [1] (Well no.=3489) was 102%. Also, the remaining activity at 3.75 µM in experiment [2] (Well no.=3489) was determined as 103%.

Turning to `CN1[C@@H]2CC[C@H]1C[C@@H](OC(c1ccccc1)c1ccccc1)C2` [Benztropine (mesylate)], in experiment [1] (Well no.=8235), the remaining activity at 1.25 µM was 100%. Moreover, the remaining activity at 3.75 µM in experiment [2] (Well no.=8235) worked out at 99.9%.

`CCCCCCC(=O)CCCCCC/C=C/C[C@@H](O)[C@H](O)[C@@](N)(CO)C(=O)O` [Myriocin]: in experiment [1] (Well no.=3417), the remaining activity at 1.25 µM is 99.6%. Moreover, the remaining activity at 3.75 µM in experiment [2] (Well no.=3417) stood at 101%.

For the molecule `CCN(CCCl)Cc1ccccc1Br` [DSP-4 hydrochloride], the remaining activity at 1.25 µM in experiment [1] (Well no.=284) is 98.1%. Also, the remaining activity at 3.75 µM in experiment [2] (Well no.=284) stood at 98%.

On to `CCCCCCCCCCC1=C(C)C(=O)C(OC)=C(OC)C1=O` [Decylubiquinone], for which the remaining activity at 1.25 µM in experiment [1] (Well no.=3245) was found to be 100%. Also, in experiment [2] (Well no.=3245), the remaining activity at 3.75 µM is 99.1%.

Take `CCCCc1nc2c(N)nc3ccccc3c2n1Cc1ccc(CN)cc1` [TLR7/8 agonist 1 (dihydrochloride)]: the remaining activity at 1.25 µM in experiment [1] (Well no.=8259) was found to be 102%. For the same molecule, in experiment [2] (Well no.=8259), the remaining activity at 3.75 µM was found to be 99.6%.
